According to patent publication US8426406B2, “Glucocorticoid receptor agonist comprising 2,2,4-trimethyl-6-phenyl-1,2-dihydroquinoline derivatives having substituted oxy group” (Santen Pharmaceutical Co., Ltd., priority 2008, dated 2013):

What was measured:
[1] = system: IL-6 production induced by lipopolysaccharide (LPS) in human corneal epithelial cells; test: Evaluation test for GR agonist activity: inhibition of LPS-induced IL-6 production in human corneal epithelial cells (HCE-T); type: cell-based; conditions: Corneal epithelial cell, 10 μL of 100 μM test compound solution per well, 4 hours incubation, efficacy relative to DEX
Procedure, shortened: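 SV40-immortalized HCE-T cells were treated with test compound (100 μM solution, stock before dilution into well) plus LPS (1 μg/mL solution, likewise pre-dilution) for 4 hours in 10% FBS-DMEM/F12. IL-6 in supernatants was measured by HTRF. Inhibition was calculated relative to LPS-plus-DMSO and no-LPS controls, and efficacy was expressed as % of DEX inhibition.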

[2] = system: allergic conjunctivitis model in mice; test: Inhibitory effect on the vascular hyper-permeability in allergic conjunctivitis model; type: in vivo; conditions: Mus musculus, 1% (W/V) test compound suspension instilled to the right eye three times before ovalbumin instillation, dye leakage vs vehicle, mean of 5-6 eyes, read-out: The inhibition ratio of the vascular hyper-permeability (%)
Method: In order to evaluate anti-allergic effect, inhibitory effect on the vascular hyper-permeability in allergic conjunctivitis model in mice was examined. This effect was calculated based on dye leakages of vehicle-treated group (control group) and test compound-treated group.
By adding 0.5% polysorbate 80/saline to the test compound, a 1% (W/V) test compound suspension was prepared.
1) Ovalbumin absorbed on aluminum hydroxide gel was dissolved in saline (20 μg ovalbumin/mL), and male BALE/c mice, 6 weeks old, were actively sensitized to the antigen by intraperitoneal injections of 500 μL of it.
2) On the 6th day from sensitization, sensitized mice were boosted by additional intraperitoneal injections of 500 μL ovalbumin absorbed on aluminum hydroxide gel (20 μg ovalbumin/mL).
3) On the 11th day, 12th day, 13th day, 14th day and 15th day from the first sensitization, allergic conjunctivitis were induced by installations to the right eyes of the mice of […] of 50% glycerol solution containing 15% (W/V) ovalbumin.
4) […] of test compound suspension per eye was instilled to the right eye of the above mice 15 min, 1 hr and 3 hrs before ovalbumin instillation (three times) on the 15th day from sensitization. In vehicle-treated group (control group), the mice were instilled with 0.5% polysorbate 80/saline in substitution for test compound suspension.
5) Just before ovalbumin instillation on the 15th day from sensitization, all animals received a tail intravenous injection of 0.1% Evans blue dye. The right periocular tissues of the mice, which were the leaked parts of dye, were collected 30 min after ovalbumin instillation. The dye was extracted from the tissues with the dye extraction liquid. Then the absorbance of the dye extract was measured. The dye leakage was calculated from the absorbance value, and the inhibition ratio of the vascular hyper-permeability of test compound-treated group was calculated according to calculation equation 1. The inhibition ratio of the vascular hyper-permeability of test compound-treated group(%)=(1−Ax/Ao)×100 (Calculation Equation 1) Ao: Dye leakage in vehicle-treated group (control group) Ax: Dye leakage in test compound-treated group (Test Results and Discussion)

| SMILES | Emax [1] | inhibition in vivo at 10000 µg/mL [2] |
| --- | --- | --- |
| COc1cc(OC(=O)c2cccnc2)ccc1-c1ccc2c(c1CNc1cc(F)ccc1C)C(C)=CC(C)(C)N2 [Compound 1-105, 5-(5-Fluoro-2-methylphenylaminomethyl)-6-[2-methoxy-4-(pyridin-3-ylcarbonyloxy)phenyl]-2,2,4-trimethyl-1,2-dihydroquinoline] | 97% | 18% |
| COc1ccccc1NCc1c(-c2ccc(OC(=O)c3ccncc3)cc2OC)ccc2c1C(C)=CC(C)(C)N2 [Compound 1-102, 5-(2-Methoxyphenylaminomethyl)-6-[2-methoxy-4-(pyridin-4-ylcarbonyloxy)phenyl]-2,2,4-trimethyl-1,2-dihydroquinoline] | 99% | 16% |
| COc1cc(OC(=O)c2ccco2)ccc1-c1ccc2c(c1COC(=O)c1ccc(C)s1)C(C)=CC(C)(C)N2 [Compound 1-138, 6-[4-(Furan-2-ylcarbonyloxy)-2-methoxyphenyl]-5-(5-methylthiophen-2-ylcarbonyloxymethyl)-2,2,4-trimethyl-1,2-dihydroquinoline] | 79% | 16% |
| COc1ccccc1C(=O)Oc1ccc(-c2ccc3c(c2COC(=O)c2ccc(C)s2)C(C)=CC(C)(C)N3)c(OC)c1 [Compound 1-136, 6-[2-Methoxy-4-(2-methoxybenzoyloxy)phenyl]-5-(5-methylthiophen-2-ylcarbonyloxymethyl)-2,2,4-trimethyl-1,2-dihydroquinoline] | 89% | 15% |
| COc1cc(OC(=O)c2cccnc2)ccc1-c1ccc2c(c1COC(=O)c1ccc(C)s1)C(C)=CC(C)(C)N2 [Compound 1-137, 6-[2-Methoxy-4-(pyridin-3-ylcarbonyloxy)phenyl]-5-(5-methylthiophen-2-ylcarbonyloxymethyl)-2,2,4-trimethyl-1,2-dihydroquinoline] | 83% | 26% |
| COc1ccccc1NCc1c(-c2ccc(OC(=O)c3cccnc3)cc2OC)ccc2c1C(C)=CC(C)(C)N2 [Compound 1-97, 5-(2-Methoxyphenylaminomethyl)-6-[2-methoxy-4-(pyridin-3-ylcarbonyloxy)phenyl]-2,2,4-trimethyl-1,2-dihydroquinoline] | 81% | 21% |
| CCC(=O)Oc1ccc(OC)c(-c2ccc3c(c2COc2cc(F)ccc2C)C(C)=CC(C)(C)N3)c1 [Compound 1-18, 5-(5-Fluoro-2-methylphenoxymethyl)-6-(2-methoxy-5-propionyloxyphenyl)-2,2,4-trimethyl-1,2-dihydroquinoline] | 77% | 30% |
| COc1cc(OC(=O)c2ccccc2Cl)ccc1-c1ccc2c(c1COC(=O)c1ccc(C)s1)C(C)=CC(C)(C)N2 [Compound 1-139, 6-[4-(2-Chlorobenzoyloxy)-2-methoxyphenyl]-5-(5-methylthiophen-2-ylcarbonyloxymethyl)-2,2,4-trimethyl-1,2-dihydroquinoline] | 104% | 15% |
| COc1cc(OC(=O)c2ccccc2Cl)ccc1-c1ccc2c(c1COc1cc(F)ccc1C)C(C)=CC(C)(C)N2 [Compound 1-7, 6-[4-(2-Chlorobenzoyloxy)-2-methoxyphenyl]-5-(5-fluoro-2-methylphenoxymethyl)-2,2,4-trimethyl-1,2-dihydroquinoline] | 78% | 28% |
